Test results from PMC13053910, “Covalent Protein Inhibitors via Tyrosine and Tryptophan Conjugation with Cyclic Imine Mannich Electrophiles” (Angewandte Chemie (International Ed. in English), 2026).
Changes are numbered by the printed parent chain. Entries after “also recorded” stand apart in the source; their conditions may differ. Like-named read-outs stand apart in the source and are kept apart here.

How the values were obtained:
[1] = target: T1, CBX2 ChD (Homo sapiens, UniProt Q14781); assay: Time-dependent fluorescence polarization displacement assay, CBX2 ChD; format: binding; settings: for IC50: Figure 5d, CBX2 ChD 2 µM, probe 100 nM
T1 construct: CBX chromodomain constructs (addgene plasmid #25158 (CBX2), and #62514 (CBX8, provided by Cheryl Arrowsmith)); 6His; host or cells: E. coli (BL21 CodonPlus RIL or Rosetta 2)
T1 sequence (Q14781 12-70 limits assumed): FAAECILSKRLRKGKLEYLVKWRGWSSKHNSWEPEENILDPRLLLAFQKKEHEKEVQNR
Procedure: (§1) Observed masses are shown (expected average mass for CBX8 ChD = 8792 Da). The observed mass difference (913 Da) agrees with the expected mass change of 913 Da. b) Labeled protein was detected by gel shift on 16.5% Tris‐Tricine SDS‐PAGE. […] Gel analysis was conducted on a 2.5% agarose gel in 10 mM sodium borate buffer. […] Assays were conducted using SW2_113 as an FP probe (Figure S20) at 100 nM. All proteins were used at 2 µM in PBS (pH 7), 0.02% Tween 20. Error bars represent SD. […] (μM); no other compound label is printed beside the IC50 lines
(§2) 2.2 Fluorescence Displacement Assay to Evaluate Time-dependent potency of Imine Covalent Inhibitors to CBX ChD. Fluorescence polarization (FP) was measured by titration of CBX ChDs (CBX8 ChD/CBX8 ChD Y39F/CBX2 ChD) to a fluoresceine-labelled probe as previously reported ^1. Fluorescence displacement assays were performed in black 384-well plates with optical bottoms. Buffer used in FP assays consists of 100 mM Na2HPO4, 150 mM NaCl, 0.02% Tween 20. […] Two-fold dilutions of covalent inhibitors were used, starting with 100 µM as highest peptide concentration to 0.049 µM as the lowest. Four replicates were tested at each concentration. Fluorescence anisotropy was read at different time points. Raw data were analyzed using GraphPad Prism 7 following a “one site-Fit logIC50” competition model with any outliers (95 % confidence interval) being excluded.
(§3) Time-dependent fluorescence displacement assay Fluorescence polarization (FP) was measured by titration of CBX ChDs (CBX8 ChD/CBX8 ChD Y39F/CBX2 ChD) to a fluorescein-labelled probe as previously reported.^8 Fluorescence displacement assays were performed in black 384-well plates with optical bottoms. Buffer used in FP assays consists of 100 mM Na2HPO4, 150 mM NaCl, 0.02% Tween 20. […] Fluorescence anisotropy was read at different time points. […] Raw data were analyzed using GraphPad Prism 7 following a “one site-Fit logIC50” competition model with any outliers (95 % confidence interval) being excluded.

[2] = Stability in bovine serum-containing cell media (LC/MS); format: in vitro ADME; settings: 20 µM, DMEM with 15% FBS, 24 h, 37 °C
Procedure: To be suitable for chemical probe and therapeutic applications, the warhead should show good stability. In general, we found the iminolactam warheads to be quite stable. Compound 1 was stable as a solid at room temperature for over 3 months. […] After 24‐h in aqueous buffer, compounds were treated with sodium cyanoborohydride. […] The synthetic strategy of in situ formation of imines by periodate treatment was pursued to avoid concerns of warhead reactivity with the ligand itself to either the peptide backbone or the phenoxyphenyl aryl group. This appears to have been unnecessary, at least for the iminolactam warhead. […] The more reactive ester imine may be forming semi‐stable cyclized products with the amide backbone, which have been observed previously with peptide aldehydes.^[ [51], [52] ^] Due to these issues, we selected compound P1b for further characterization.
Figure S17. Stability of cyclic imine inhibitors to serum-containing cell culture media. […] The protein fraction was then precipitated with addition of 2 volumes of 1:1 EtOH:acetonitrile and overnight incubation at -20 °C. Samples were centrifuged 16,000 g for 30 minutes. Supernatants were filtered through a 0.5 micro spin filter and evaporated with a speed vacuum. The compounds were resuspended in PBS and analzyed by LC/MS. […] Overlaid spectra of UV at 215 nm are shown and are representative of 3 replicates.

[3] = target: T2, CBX8 Y39F (Homo sapiens, UniProt Q9HC52, Y39F); assay: Labeling of CBX8 Y39F mutant (gel shift, LC/MS); format: binding; settings: gel shift and LC/MS, 10 µM each, 37 °C
T2 construct: 6His (N); TEV site (ENLYFQG), read by me from the printed insert DNA (N); host or cells: E. coli (BL21 CodonPlus RIL or Rosetta 2), pET-28a(+)
T2 sequence (Q9HC52 11-69 Y39F limits assumed): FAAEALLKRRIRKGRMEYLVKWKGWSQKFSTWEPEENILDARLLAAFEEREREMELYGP
Procedure: as §1
We confirmed protein labeling through a gel shift assay on Tris‐Tricine SDS‐PAGE (Figure 5b). […] To validate labeling of the targeted tyrosine residue (Y39), this amino acid was mutated to phenylalanine. […] We additionally confirmed the labeling site as Y39 by trypsin digest and LC‐MS/MS analysis (Figure S9B).
For P2, 10 µM purified CBX ChD was incubated with P2 (10 µM) in PBS buffer (pH 7) at 37 °C or R.T. for 1.5 hours, as well as 12 hours overnight. Samples were precipitated using MeOH and CHCl3 at the volume ratio of MeOH:CHCl3:sample=3:0.5:1, washed twice using cold MeOH, and air dried. Dried protein pellets were resuspended in aqueous buffer (0.1% formic acid, 300 mM ammonium acetate), and protein labeling were characterized and quantitated by ESI LC-MS.

[4] = target: T3, CBX8 ChD Y39F (Homo sapiens, UniProt Q9HC52, Y39F); assay: Time-dependent fluorescence polarization displacement assay, CBX8 Y39F; format: binding; settings: for IC50: Figure 5d, CBX8 Y39F 2 µM, probe 100 nM
T3 construct: 6His (N); TEV site (ENLYFQG), read by me from the printed insert DNA (N); host or cells: E. coli (BL21 CodonPlus RIL or Rosetta 2), pET-28a(+)
T3 sequence (Q9HC52 11-69 Y39F limits assumed): T2 sequence (Q9HC52 11-69 Y39F limits assumed)
Procedure: as §1, §2, §3

[5] = target: T4, CBX8 ChD (Homo sapiens, UniProt Q9HC52); assay: Time-dependent fluorescence polarization displacement assay, CBX8 ChD; format: binding; settings: Figure 5d, CBX8 ChD 2 µM, PBS pH 7
T4 construct: CBX chromodomain constructs (addgene plasmid #25158 (CBX2), and #62514 (CBX8, provided by Cheryl Arrowsmith)); 6His; host or cells: E. coli (BL21 CodonPlus RIL or Rosetta 2)
T4 sequence (Q9HC52 11-69 limits assumed): T2 sequence (Q9HC52 11-69 Y39F limits assumed) with F29Y

CC[C@H](C)[C@H](NC(=O)[C@@H](NC(=O)c1ccc(Oc2ccccc2)cc1)C1CCCC1)C(=O)N[C@@H](CCCCN(CC)CCCCCCN1CCN=CC1=O)C(=O)N[C@@H](CO)C(N)=O [P1b]
IC50 ([1]; read-out: IC50 at time 0): 17 µM | IC50 ([1]; IC50 at 20 h): 15 µM | change in potency in time‐dependent FP assay ([1]; binding to CBX2): no change in potency | stability in bovine serum‐containing cell media [2]: no degradation or loss to the protein fraction; also recorded: minimal loss of compounds to the precipitated protein fraction or degradation | labeling of mutant CBX8 Y39F [3]: fails to label | change in IC50 upon extended incubation ([4]; CBX8 Y39F mutant): no change in IC50 | IC50 ([4]; read-out: IC50 at time 0): 12 µM | IC50 ([4]; IC50 at 20 h): 11 µM | IC50 ([5]; SW2_113 probe 100 nM, read-out: IC50 at time 0): 9.9 µM | IC50 ([5]; IC50 at 20 h, probe 100 nM): 2 µM
